The source of these data is patent publication US20060252830A1, “Method for the treatment of magnesium and potassium deficiencies” (priority 2005, published 2006).

Data set [1] is described as follows: Intracellular elemental concentrations in sublingual buccal smears (EXAtest, energy-dispersive X-ray analysis). The note with it: p=0.002; all patients below the normal reference range at baseline reached it. It is filed as in vivo, human. As for the experimental part: A randomized, double-blind, placebo-controlled study was performed at Hartford Hospital. People taking dofetilide or sotalol therapy for at least 5 half-lives were eligible for inclusion. […] After enrollment, people who discontinued their sotalol or dofetilide or altered their dosage of these drugs were excluded as well. Thirty-four participants were enrolled in the study. Three were subsequently excluded because the antiarrhythmics they were using were discontinued or the dose of the antiarrhythmics changed during the study. Given the known baseline differences in QTc intervals among men and women, each gender was randomized separately using stratified allocation. […] All of the other baseline intracellular elements evaluated (phosphorus, chloride, calcium, potassium, and sodium) were within the reference range although the phosphorus was at the top of the range (average=16.7±2.8 mEq/IU with reference range of 14.2-17.0 mEq/IU).
Participants received three tablets of magnesium L-lactate (Mag-Tab SR®; Niche Pharmaceuticals; Roanoke, Tex.) or matching placebo twice daily (504 mg of elemental magnesium daily) for 48 hours (i.e. t=0, 12 h, 24 h, 36 h, and 48 h). A 12-lead electrocardiogram (ECG) was recorded at 25 mm/sec at rest prior to initiation of treatment (i.e. baseline) and at 3 and 51 hours after the first dose of magnesium (i.e. t=3 h and t=51 h) for each participant. […]

Data set [2] relates to patients receiving sotalol or dofetilide. As to the kind of experiment: Randomized, double-blind, placebo-controlled study: 12-lead ECG intervals in people taking dofetilide or sotalol. The class given is in vivo, human. As for the experimental part:
A randomized, double-blind, placebo-controlled study was performed at Hartford Hospital. People taking dofetilide or sotalol therapy for at least 5 half-lives were eligible for inclusion. […] After enrollment, people who discontinued their sotalol or dofetilide or altered their dosage of these drugs were excluded as well. Thirty-four participants were enrolled in the study. Three were subsequently excluded because the antiarrhythmics they were using were discontinued or the dose of the antiarrhythmics changed during the study. Given the known baseline differences in QTc intervals among men and women, each gender was randomized separately using stratified allocation. Patients completing the study (n=30) were well matched for baseline characteristics, which are reflected in Table 1. Intracellular concentrations of essential elements were available for 19 subjects. Overall 63.2% of patients (regardless of experimental group) had baseline intracellular magnesium concentrations below the normal reference range of 33.9-41.9 mEq/IU with an average level of 32.6±2.2 mEq/IU. All of the other baseline intracellular elements evaluated (phosphorus, chloride, calcium, potassium, and sodium) were within the reference range although the phosphorus was at the top of the range (average=16.7±2.8 mEq/IU with reference range of 14.2-17.0 mEq/IU).
Participants received three tablets of magnesium L-lactate (Mag-Tab SR®; Niche Pharmaceuticals; Roanoke, Tex.) or matching placebo twice daily (504 mg of elemental magnesium daily) for 48 hours (i.e. t=0, 12 h, 24 h, 36 h, and 48 h). A 12-lead electrocardiogram (ECG) was recorded at 25 mm/sec at rest prior to initiation of treatment (i.e. baseline) and at 3 and 51 hours after the first dose of magnesium (i.e. t=3 h and t=51 h) for each participant. A single blinded investigator read all ECGs using a precision ruler of 0.5 mm scale (Schlaedler-Quinzel, Inc. Parsippany, N.J.).
QT intervals were measured from the onset of the Q wave (or R/S wave if there was no Q wave) to the end of the T wave where it merges with the isoelectric baseline. The beginning and end of the QRS complex were determined by visual inspection, whereas the end of the T-wave was obtained by extrapolating the descending slope of the T-wave to the isoelectric baseline. When a U wave interrupts the down-sloping of the T-wave, the visible portion of the T wave was extrapolated to the T-P baseline to define the end of the T-wave. The R-R interval was measured from the peak of one R wave to the peak of an adjacent R wave. The QTc interval was corrected for heart rate using Bazett's formula [QTc=QT/(RR)^1/2].
Continuous data was expressed by a mean±SD. A p value less than 0.05 was considered statistically significant. The primary analysis was the intergroup comparisons of the change in QTc interval from baseline at 3 hours and 51 hours using Bazett's formula. Evaluations of the QRS, QT, and RR intervals were compared between groups at each time period as well. Mann-Whitney tests were used for all statistical analyses of continuous ECG data. Intracellular element intragroup comparisons were performed with a paired t-test. Chi^2 or Fischer's Exact tests were used for categorical comparisons. Statistical analysis was performed using SPSS version 5.

The subject of data set [3] is patients with atrial fibrillation. Particulars: oral; two 6 month studies; cited from earlier work.

As for `C[C@H](O)C(=O)[O-].C[C@H](O)C(=O)[O-].O.O.[Mg+2]` [Magnesium L-lactate, magnesium l-lactate dihydrate], the “change of intracellular magnesium concentrations after magnesium supplementation” value in data set [1] is on record as “rose significantly”. The compound also yielded a QT interval reduction in data set [2] (3 hours) of 15 ms. Moreover, the “reduction in the QTc interval from baseline” value in data set [2] (3 hours, group receiving diuretics) amounted to 51.1 ± 42 ms; in data set [2] (3 hours, no diuretic group), 25.5 ± 27.9 ms; in data set [2] (51 hours, group receiving diuretics), 24.7 ± 24.3 ms; in data set [2] (51 hours, no diuretic group) it was 26.2 ± 27.4 ms.

Regarding `[Mg+2].[OH-].[OH-]` [magnesium hydroxide], in data set [3], the maintaining sinus rhythm result is “ineffective”.
